The source of these data is patent US10806746B2, “Di- and tri-cationic glycosylated antitumor ether lipids, L-gucosylated gaels and rhamnose-linked gaels as cytotoxic agents against epithelial cancer cells and cancer stem cells” (The University of Manitoba, priority 2014, dated 2020).

Read-outs that look alike come from different tables or passages of the source.

Broadly, the CC50 is the concentration that lowers cell viability or growth by half.

Type in all cases: cell-based, human
Data set [1] has as its system MDA-MB-231 cells. The data set is described as follows: MTS viability assay, MDA-MB-231 breast cancer cells. As to the method: FIG. 2A. Effects of compounds 1-11 on the viability of MDA-MB231 cells. MDA-MB-231 cells were cultured in DMEM medium supplemented with 10% FBS. Equal numbers were dispersed into 96-well plates. After 24 h, the cells were incubated with compounds 1-11 (0-30 μM) for 48 h. At the end of the incubation, MTS reagent (20% vol/vol) was added and the plates were incubated for 1-4 h. The OD490 was read with a plate reader. Wells with media but no cells were treated in similar fashion and the values utilized as blank. The results represent the mean±standard deviation of 6 independent determinations.
(§1) FIG. 2K. Effects of compounds 1, 69-72 on the viability of MDA-MB-231 cells. MDA-MB-231 cells were cultured in DMEM medium supplemented with 10% FBS. Equal numbers were dispersed into 96-well plates. After 24 h, the cells were incubated with compounds 1, 69-72 for 48 h. At the end of the incubation, MTS reagent (20% vol/vol) was added and the plates were incubated for 1-4 h. The OD490 was read with a plate reader. Wells with media but no cells were treated in similar fashion and the values utilized as blank. The results represent the mean±standard deviation of 6 independent determinations.
(§2) The cell lines were cultured from frozen stocks originally obtained from ATCC. MDA-MB-231, JIMT-1, DU145, U81, U251 cells were grown in DMEM medium. BT474, A2780s, A2780cp cells were grown in DMEM/F12 medium supplemented with 10% FBS. MiaPaCa2 was cultured in DMEM supplemented with 10% FBS and 2.5% horse serum. PC3 cells were cultured in F12K medium supplemented with 10% FBS. All the media were supplemented with penicillin/streptomycin.
(§3) The effects of the GAELs on the viability of the various epithelial cancer cell lines was determined as previously described. Briefly, equal numbers of the cells were dispersed into 96-well plates. After 24 h, the cells were incubated with the compounds (0-30 μM) for 48 h. At the end of the incubation, MTS reagent (20% vol/vol) was added and the plates were incubated for 1-4 h. The OD490 was read with a plate reader. Wells with media but no cells were treated in similar fashion and the values utilized as blank. The results represent the mean±standard deviation of 6 independent determinations.

The subject of data set [2] is PC3 cells. Put plainly: MTS viability assay, PC3 prostate cancer cells. Particulars: 48 h, MTS; for CC50: Table 1A, read-out: CC50 values PC3; for CC90: Table 1B, read-out: CC90 values PC3. As to the method:
FIG. 2E. Effects of compounds 1-11 on the viability of PC3 cells. PC3 cells were cultured in F12K medium supplemented with 10% FBS. Equal numbers were dispersed into 96-well plates. After 24 h, the cells were incubated with compounds 1-11 (0-30 μM) for 48 h. At the end of the incubation, MTS reagent (20% vol/vol) was added and the plates were incubated for 1-4 h. The OD490 was read with a plate reader. Wells with media but no cells were treated in similar fashion and the values utilized as blank. The results represent the mean±standard deviation of 6 independent determinations.
as §2, §3
In general terms: Tetrazolium assays rely on reduction of a dye to a coloured formazan, in cell work by metabolically active cells.

The test system of data set [3] is DU145 cells. Put plainly: MTS viability assay, DU145 prostate cancer cells. As to the method:
(§4) FIG. 2D. Effects of compounds 1-11 on the viability of DU145 cells. DU145 cells were cultured in DMEM medium supplemented with 10% FBS. Equal numbers were dispersed into 96-well plates. After 24 h, the cells were incubated with compounds 1-11 (0-30 μM) for 48 h. At the end of the incubation, MTS reagent (20% vol/vol) was added and the plates were incubated for 1-4 h. The OD490 was read with a plate reader. Wells with media but no cells were treated in similar fashion and the values utilized as blank. The results represent the mean±standard deviation of 6 independent determinations.
FIG. 2H. Effect of compounds 1, 69-72 on the viability of DU145 cells. DU145 cells were cultured in DMEM medium supplemented with 10% FBS. Equal numbers were dispersed into 96-well plates. After 24 h, the cells were incubated with compounds 1, 69-72 for 48 h. At the end of the incubation, MTS reagent (20% vol/vol) was added and the plates were incubated for 1-4 h. The OD490 was read with a plate reader. Wells with media but no cells were treated in similar fashion and the values utilized as blank. The results represent the mean±standard deviation of 6 independent determinations.
as §2, §3

For data set [4], the system named is MiaPaCa2 cells. Put plainly: MTS viability assay, MiaPaCa2 pancreas cancer cells. As to the method:
as §4, with “2F.” for “2D.”, “MiaPaCa2” for “DU145”, “FBS and 2.5% horse serum.” for “FBS.”
as §1, with “2I.” for “2K.”, “MiaPaCa2” for “MDA-MB-231”, “FBS and 2.5% horse serum.” for “FBS.”
as §2, §3

Data set [5] deals with JIMT-1 cells. The data set is described as follows: MTS viability assay, JIMT-1 breast cancer cells. As to the method: FIG. 2B. Effects of compounds 1-11 on the viability of JIMT-1 cells. JIMT-1 cells were cultured in DMEM medium supplemented with 10% FBS. Equal numbers were dispersed into 96-well plates. After 24 h, the cells were incubated with compounds 1-11 (0-30 μM) for 48 h. At the end of the incubation, MTS reagent (20% vol/vol) was added and the plates were incubated for 1-4 h. The OD490 was read with a plate reader. Wells with media but no cells were treated in similar fashion and the values utilized as blank. The results represent the mean±standard deviation of 6 independent determinations.
FIG. 2J. Effects of compounds 1, 69-72 on the viability of JIMT-1 cells. JIMT-1 cells were cultured in DMEM medium supplemented with 10% FBS. Equal numbers were dispersed into 96-well plates. After 24 h, the cells were incubated with compounds 1, 69-72 for 48 h. At the end of the incubation, MTS reagent (20% vol/vol) was added and the plates were incubated for 1-4 h. The OD490 was read with a plate reader. Wells with media but no cells were treated in similar fashion and the values utilized as blank. The results represent the mean±standard deviation of 6 independent determinations.
as §2, §3

The test system of data set [6] is BT-474 cells. Put plainly: MTS viability assay, BT-474 breast cancer cells. Particulars: 48 h, MTS; for CC50: Table 1A, read-out: CC50 values BT474; for CC90: Table 1B, read-out: CC90 values BT474. The protocol:
FIG. 2C. Effects of compounds 1-11 on the viability of BT-474 cells. BT-474 cells were cultured in DMEM/F12 medium supplemented with 10% FBS. Equal numbers were dispersed into 96-well plates. After 24 h, the cells were incubated with compounds 1-11 (0-30 μM) for 48 h. At the end of the incubation, MTS reagent (20% vol/vol) was added and the plates were incubated for 1-4 h. The OD490 was read with a plate reader. Wells with media but no cells were treated in similar fashion and the values utilized as blank. The results represent the mean±standard deviation of 6 independent determinations.
as §2, §3

The mark [7] stands for this setting: Table 1A, 48 h, read-out: CC50 values MD 231.
The mark [8] stands for this setting: Table 1B, 48 h, read-out: CC90 values MD 231.
[9] abbreviates: Table 1A, 48 h, read-out: CC50 values DU 145.
The mark [10] stands for this setting: Table 1B, 48 h, read-out: CC90 values DU 145.
Where [11] appears, read: Table 1A, 48 h, read-out: CC50 values MiaPaCa2.
The mark [12] stands for this setting: Table 1B, 48 h, read-out: CC90 values MiaPaCa2.
Setting [13] is: Table 1A, 48 h, read-out: CC50 values JIMT1.
[14] abbreviates: Table 1B, 48 h, read-out: CC90 values JIMT1.
Setting [15] is: Table 5, 48 h, read-out: CC50 MDA-MB-231.
Setting [16] is: Table 5, 48 h, read-out: CC90 MDA-MB-231.
[17] abbreviates: Table 5, 48 h, read-out: CC50 DU-145.
Where [18] appears, read: Table 5, 48 h, read-out: CC90 DU-145.
Setting [19] is: Table 5, 48 h, read-out: CC50 Mlapaca2.
[20] abbreviates: Table 5, 48 h, read-out: CC90 Mlapaca2.
The mark [21] stands for this setting: Table 5, 48 h, read-out: CC50 JIMT1.
Where [22] appears, read: Table 5, 48 h, read-out: CC90 JIMT1.

Regarding `CCCCCCCCCCCCCCCCOC[C@H](CO[C@H]1O[C@H](CN)[C@@H](O)[C@H](O)[C@H]1N1C(=O)c2ccccc2C1=O)OC` [Compound 3, 1-O-Hexadecyl-2-O-methyl-3-O-(-2′-N-phthalimido-6′-amino-2′,6′-dideoxy-δ-D-glucopyranosyl)-sn-glycerol], the CC50 in data set [1] (setting [7]) is 20 µM; in data set [2] it was 15 µM; in data set [3] (setting [9]), more than 30 µM; in data set [4] (setting [11]) it was more than 30 µM; in data set [5] (setting [13]) it was more than 30 µM. The CC90 in data set [1] (setting [8]) is more than 30 µM; in data set [2], 30 µM; in data set [3] (setting [10]) it was more than 30 µM; in data set [4] (setting [12]) it was more than 30 µM; in data set [5] (setting [14]), more than 30 µM.

Take `CCCCCCCCCCCCCCCCOC[C@@H](CN)O[C@H]1O[C@H](CO)[C@@H](O)[C@H](O)[C@H]1N` [Compound 7, 1-O-Hexadecyloxy-2R-(2′-amino-2′-deoxy-α-D-glucopyranosyl)-3-amino glycerol]: the half-maximal cytotoxic concentration (CC50) in data set [6] came out at 25 µM; in data set [1] (setting [7]), 12 µM; in data set [2] it was 9.5 µM; in data set [3] (setting [9]) it was 17.5 µM; in data set [4] (setting [11]), 15 µM; in data set [5] (setting [13]), 14 µM. The CC90 was more than 30 µM in data set [6]; 17.5 µM in data set [1] (setting [8]); 17 µM in data set [2]; 25 µM in data set [3] (setting [10]); 28 µM in data set [4] (setting [12]); 19 µM in data set [5] (setting [14]).

In the case of `CCCCCCCCCCCCCCCCOCC(N)CO[C@H]1O[C@H](CO)[C@@H](O)[C@H](O)[C@H]1N` (stereo partly drawn) [Compound 8, 1-O-Hexadecyloxy-2S/R-amino-3-(-2′-amino-2′-deoxy-α-D-glucopyranosyl)-glycerol], the 50% cytotoxic concentration (CC50) was 15.5 µM in data set [6]; 6 µM in data set [1] (setting [7]); 9 µM in data set [2]; 6 µM in data set [3] (setting [9]); 8.5 µM in data set [4] (setting [11]); 5.5 µM in data set [5] (setting [13]). For the same molecule, the CC90 in data set [6] turned out to be 28 µM; in data set [1] (setting [8]), 9 µM; in data set [2] it was 14 µM; in data set [3] (setting [10]), 9 µM; in data set [4] (setting [12]) it was 14 µM; in data set [5] (setting [14]) it was 7.5 µM.

For `CCCCCCCCCCCCCCCCOC[C@H](CO[C@H]1O[C@@H](CN)[C@H](OCc2ccccc2)[C@@H](O)[C@@H]1N)OC` [Compound 70, 1-O-Hexadecyl-2-O-methyl-3-O-(4′-benzyl-2′,6′-diamino-2′,6′-dideoxy-β-L-glucopyranosyl)-sn-glycerol], the CC50 in data set [1] (setting [15]) turned out to be 4 µM; in data set [3] (setting [17]) it was 3.6 µM; in data set [4] (setting [19]), 5 µM; in data set [5] (setting [21]) it was 2 µM. Moreover, the CC90 in data set [1] (setting [16]) came out at 4.9 µM; in data set [3] (setting [18]), 4.9 µM; in data set [4] (setting [20]), 7.1 µM; in data set [5] (setting [22]), 3.5 µM.

Turning to `CCCCCCCCCCCCCCCCOC[C@H](CO[C@@H]1O[C@@H](CN)[C@H](O)[C@@H](O)[C@@H]1N)OC` [Compound 71, 1-O-Hexadecyl-2-O-methyl-3-O-(2′,6′-diamino-2′,6′-dideoxy-α-L-glucopyranosyl)-sn-glycerol], the CC50 in data set [1] (setting [15]) was determined as 5.5 µM; in data set [3] (setting [17]), 6 µM; in data set [4] (setting [19]) it was 6 µM; in data set [5] (setting [21]) it was 4 µM. Also, the CC90 worked out at 7.5 µM in data set [1] (setting [16]), 8 µM in data set [3] (setting [18]), 15 µM in data set [4] (setting [20]) and 6.5 µM in data set [5] (setting [22]).

For `CCCCCCCCCCCCCCCCOC[C@H](CO[C@@H]1O[C@@H](CN)[C@H](OCc2ccccc2)[C@@H](O)[C@@H]1N)OC` [Compound 72, 1-O-Hexadecyl-2-O-methyl-3-O-(4′-benzyl-2′,6′-diamino-2′,6′-dideoxy-α-L-glucopyranosyl)-sn-glycerol], the half-maximal cytotoxic concentration (CC50) in data set [1] (setting [15]) was determined as 4 µM; in data set [3] (setting [17]), 3.6 µM; in data set [4] (setting [19]) it was 4.5 µM; in data set [5] (setting [21]), 2 µM. Also, the CC90 in data set [1] (setting [16]) worked out at 4.9 µM; in data set [3] (setting [18]) it was 4.9 µM; in data set [4] (setting [20]), 7 µM; in data set [5] (setting [22]), 3.5 µM.
